Data: ChEMBL document CHEMBL3507680, “University of Dundee, Gates Library screen for HepG2 cell viability”

Assay: Human HepG2 cell viability assay in 384 well format
Format: toxicity, cell-based
Parameters: dose 125 nL, time 70.5 hour; cytotoxicity at 70.5 h: concentration not given beside the values
Conditions: HepG2 cells, read-out: Inhibition

Row | Compound | cytotoxicity at 70.5 h [%]
1 | CC(C)n1cnnc1CN(C)C(=O)c1ccccc1N1CCOCC1 | 9.11
2 | Cc1nc(NC2CCS(=O)(=O)CC2)cc(C2CCCNC2)n1 (stereo not given) | -7.39
3 | O=C1[C@H]2CC[C@H](CN(c3ncnc4ccsc34)C2)N1CC1CC1 | -11
4 | CC(C)C(=O)N1CCCC(Cc2ncccn2)C1 (stereo not given) | -1.65
5 | Cc1nc(COC[C@@H]2CCC[C@@]23CN(C)CCO3)cs1 | 4.91
6 | COCc1noc(-c2ccc(N(C)Cc3ccc(C)o3)nc2)n1 | -2.55
7 | Cc1nccc(CNS(=O)(=O)N(C)Cc2ccc(Cl)cc2)n1 | 8.78
8 | CCc1ccc(C2CCCCCN2C(=O)CNC(=O)C2CC2)o1 (stereo not given) | -1.46
9 | CN(C)S(=O)(=O)N1CCC(Oc2ccc(C#N)cc2)CC1 | -4.56
10 | COc1cc2c(cc1OC)C(=O)C(Sc1nnc(C)o1)C2 (stereo not given) | -15.9
11 | CC(CN1CCCC1=O)NC(=O)c1cc(-c2cccc(Cl)c2)no1 (stereo not given) | -18.5
12 | CC(C)N1CCn2c(COCC3CCOCC3)cnc2C1C (stereo not given) | -1.85
13 | Cc1nc(C)n(C2CCCN(C(=O)c3ccc4c(c3)COC4)C2)n1 (stereo not given) | 0.389
14 | CC(C)C(NC(=O)c1ccc(N2CCOCC2)nc1)c1cccs1 (stereo not given) | -9.4
15 | Cc1ncsc1C(=O)N1CCC(c2ccc3c(NC(C)C)n[nH]c3n2)C1 (stereo not given) | -15.9
16 | COc1ccc2[nH]c(CNc3cc(C4CCNCC4)nc(C)n3)cc2c1 | -3.5
17 | CN(CCN1CCOCC1)C(=O)C1(c2ccc(F)cc2F)CCC1 | -2.7
18 | CCS(=O)(=O)N1CCCn2nnc(CNC(C)=O)c2C1 | 7.38
19 | CCc1cnc(CN(C(C)=O)C2CCN(CCc3cccs3)C2)o1 (stereo not given) | 8.24
20 | Cc1c(C(=O)N2CCC2)nnn1-c1ccc2ncccc2c1 | -3.53
21 | OC(CN1CCOCC1)CN1CCc2c(ncn2C2CC2)C1 (stereo not given) | 30.4
22 | CCC(C(=O)Nc1ccc2cn(CC)nc2c1)N1CCCC1=O (stereo not given) | -24.8
23 | Cc1nc(N(C)C)nc(N(C)Cc2cnccn2)c1C | -9.41

Row | Compound | cytotoxicity at 70.5 h [%]
24 | O=C(c1sccc1C1CC1)N1CCN(c2ncccn2)CC1 | -0.605
25 | CNC(=O)C(C)(C)N1CCC[C@H]1C(=O)NCCN1CCOCC1 | -6.76
26 | CCOCCN1CCN(Cc2nnc(C3CC3)o2)CC1CC (stereo not given) | 13.5
27 | O=C(c1ccc2c(c1)CCC2)N1C[C@@H](CN2CCOCC2)[C@@H](CO)C1 | -6.01
28 | O=C(c1cccnc1O)N1CCOC(Cc2cccc(C(F)(F)F)c2)C1 (stereo not given) | -7
29 | COCc1nnc(-c2cccc(C(=O)N(C)CC(C)(C)C)c2)o1 | -14.1
30 | CCc1nccn1-c1nccnc1C1CCCN(C(=O)COC)C1 (stereo not given) | -6.06
31 | CC(Cn1ccnc1)NC(=O)NCCc1ccccn1 (stereo not given) | -0.19
32 | Cc1cc(NC(=O)CC2(Cn3cnnn3)CCCCC2)nn1C | -23.2
33 | O=C(c1csc(-c2ccco2)n1)N1CCN2CCCCC2C1 (stereo not given) | -4.49
34 | O=C(c1ccn(-c2cccc(Cl)c2)n1)N1CCN(C2CC2)CC1 | -0.559
35 | CCc1noc(C(C)N2CCC(N3CCCCC3)CC2)n1 (stereo not given) | -6.88
36 | COCC(O)CN1CCC(NC(=O)c2ccccc2Cl)CC1 (stereo not given) | -0.503
37 | Cn1nc(CN2CCOCC2)c2c1CN(C(=O)c1ccc[nH]1)C2 | 0.563
38 | Cn1cc(CNc2ccc(F)c(N3CCCS3(=O)=O)c2)cn1 | -1.61
39 | c1cnc(N2CCC3(CCN(Cc4cccnc4)CC3)CC2)nc1 | -8.42
40 | CCc1noc(CN(CC)C(=O)CC2C(=O)NCCN2CC=C(C)C)n1 (stereo not given) | 1.29
41 | CCn1cnnc1C1CCN(C(=O)c2cc(OC)ccc2OC)CC1 | 1
42 | CCOCC1CC2(CCN(C(=O)C3CCSCC3)CC2)CO1 (stereo not given) | 8.92
43 | CCN(Cc1cccc(C(=O)Nc2c(C)cnn2C)c1)[C@H]1COC[C@@H]1O | -2.17
44 | C[C@@H]1CN(C(=O)CCc2nncn2C)CC[C@@]1(O)C1CCC1 | -5.47
45 | Cc1nc(-c2nc(C(=O)NC3CC3)c3ccccn23)cn1C(C)C | -2.95
46 | O=C(Nc1cc(-c2ccccc2)on1)N1CC[C@H](O)C1 | -1.65

Row | Compound | cytotoxicity at 70.5 h [%]
47 | CCCn1ccnc1SCCNS(=O)(=O)c1ccccc1 | -1.16
48 | CCn1nc(C)c(NC(=O)c2cc(NC(=O)C(C)C)n(C)n2)c1C | -5.54
49 | CC(C)c1nnc2ccc(N3CCC(C(=O)Nc4nccs4)CC3)nn12 | 10.7
50 | O=C(NCCCOCC1CC1)Nc1cccnc1N1CCOCC1 | -5.01
51 | Cc1ncsc1-c1nc(Cc2cccs2)nn1C1CCN(C)CC1 | -4.07
52 | CC(=O)N1CCn2c(-c3ccccc3)cnc2C12CCNCC2 | -6.82
53 | Cc1ccc(NC2CCCN(CCCc3ccccc3)C2)nn1 (stereo not given) | 30.2
54 | CCC(CC)CN(C)Cc1nc(-c2ccccc2NS(C)(=O)=O)oc1C | -5.33
55 | CN(Cc1cccc(-n2cccn2)c1)Cc1c[nH]cn1 | -0.523
56 | CCn1ccc2ccc(CN3CCCC3c3nc(C(C)C)no3)cc21 (stereo not given) | -10.7
57 | O=C(O)C1(Oc2cccc(F)c2)CCN(c2ccncc2)CC1 | -0.0629
58 | Cc1nsc(N2CCc3sccc3C2)n1 | -1.49
59 | CCN(C)S(=O)(=O)c1c(F)cc(NC(C)=O)cc1F | -2.83
60 | Cn1ncc2c1CN(Cc1cccnc1)CC2COCC1CC1 (stereo not given) | -2.46
61 | Cc1cnn(CC2CCCN2C(=O)CCc2ccco2)c1 (stereo not given) | -6.55
62 | CCc1nccc(CN2CCC(CNC(=O)Nc3ccccc3)C2)n1 (stereo not given) | 18.8
63 | O=C(Nc1ncn(CC(=O)N2CCCCCC2)n1)C1CCCC1 | -7.56
64 | Cc1nccn1C1CCCN(C(=O)c2ccc3nncn3c2)C1 (stereo not given) | -4.02
65 | Cc1cc(C2CCCN(C(=O)c3cnccn3)C2)ccn1 (stereo not given) | -0.249
66 | Cc1ccc(C(CNCc2cccnc2)N2CCOCC2)s1 (stereo not given) | -10.2
67 | CN(C(=O)c1ccccc1F)[C@@H]1CC[C@@H](O)[C@@H]1O | -5.24
68 | O=C(CNC(=O)c1cnccn1)Nc1ncc[nH]1 | -33.4
69 | COc1cc(CNC(C)Cn2cccn2)cc2c1OCO2 (stereo not given) | -9.7

Row | Compound | cytotoxicity at 70.5 h [%]
70 | CN1CCOCC2(CCCN(C(=O)c3ccc(-n4cccc4)cc3)C2)C1 (stereo not given) | 9.26
71 | Cn1cnnc1S(=O)(=O)C1CCN(S(=O)(=O)c2ccc(Cl)s2)CC1 | 11.9
72 | CCc1nc(CN2CCCN(C(=O)CC3CCCC3)CC2)cs1 | 4.58
73 | O=C(C1CC1)N1CCc2nc(C3CCN(C(=O)C4CC4)C3)nc(O)c2C1 (stereo not given) | -10
74 | Cc1nn(C)c(C)c1C1CCCN1C(=O)c1nccnc1N (stereo not given) | -8.84
75 | COCCCNC(=O)N1CCN(C(=O)c2nsc3ccccc23)CC1 | -18.1
76 | CC(C)C1CN(C(=O)c2cc(=O)[nH]c(=O)[nH]2)CCCN1CC1CC1 (stereo not given) | -0.864
77 | CCCC(C)N(C)Cc1nnc(-c2ccc(Br)s2)o1 (stereo not given) | -4.09
78 | CC(=O)Nc1nc(CN2CCOC(Cn3cc(C)cn3)C2)cs1 (stereo not given) | -7.56
79 | Cc1cn2c(n1)C(CNCC1=Cc3cc(Cl)ccc3OC1)CCC2 (stereo not given) | 3.13
80 | NC(=O)c1cc2c(nc1CCOCc1ccccc1)CCC2 | -8.58
81 | CN1CCCC(Cc2cncc(C(=O)NC3CC3)c2)C1 (stereo not given) | -6.9
82 | Cn1cc(C2(C)CN(Cc3ccc(N4CCCC4)nc3)CCO2)cn1 (stereo not given) | -10.5
83 | CC(C)N1CCOC(CC(=O)N2CCCN(Cc3ccncc3)CC2)C1 (stereo not given) | 15.7
84 | CCn1nc(C)cc1C(=O)N1C[C@@H]2C[C@@H](c3noc(C)n3)O[C@@H]2C1 | -6.34
85 | CCOc1cc(C)nc(N2CCN(C(=O)Cn3cc(C)cn3)CC2)n1 | -0.0989
86 | Cc1nc(C)n(C2CCCN(C(=O)CCOC(C)C)C2)n1 (stereo not given) | 10.2
87 | Cc1cc(CN2CCC(CNC(=O)c3ccc(O)c(Cl)c3)C2)[nH]n1 (stereo not given) | -4.96
88 | Cc1nc(N)nc(C)c1CC(=O)N1CCCCC1c1cccc(F)c1 (stereo not given) | -8.87
89 | Cc1cnc(CN(C)C2CCN(CC(=O)Nc3c(C)n[nH]c3C)C2)o1 (stereo not given) | 11.7
90 | CN(C)c1ncc2c(n1)C1(CCN(Cc3cccnc3)C1)COC2 (stereo not given) | 4.89
91 | CC(O)CN1CCC(CN(C)Cc2cccc(C#N)c2)CC1 (stereo not given) | -2.33
92 | Cc1nonc1C1CCCN1C(=O)c1cc2n(n1)CCCNC2 (stereo not given) | 4.03

Row | Compound | cytotoxicity at 70.5 h [%]
93 | NS(=O)(=O)CC1CCCN(C(=O)CCCC2CCCC2)C1 (stereo not given) | -12.7
94 | C[C@@H]1CN(Cc2ccco2)CCN1C(=O)Cc1ccccc1F | -10.6
95 | O=C(c1cccc2cn[nH]c12)N1CCCC1c1noc(C2CC2)n1 (stereo not given) | -2.84
96 | CN(C)C(=O)CNS(=O)(=O)c1cc(Br)ccc1F | 2.64
97 | Cc1cc(C)cc(NC(=O)Nc2c(O)oc3ccccc3c2=O)c1 | -6.68
98 | CC(C)c1n[nH]c(C2CN(C(=O)COCC(F)(F)F)CCO2)n1 (stereo not given) | -12.9
99 | COCC1CN(C(=O)COc2ccc(C)cc2)Cc2cn(C)nc21 (stereo not given) | -2.9
100 | COc1ncc(-c2cc(NC3CCCC3)nc3[nH]ccc23)c(OC)n1 | -12
101 | O=C(NCC(F)(F)F)C1CSCN1S(=O)(=O)c1cccc(F)c1 (stereo not given) | -12
102 | CCOCCN1CCN(CC(O)c2ccc(F)cc2)CC1 (stereo not given) | -6.89
103 | COC(=O)NCC(=O)NCc1nn(-c2ccccc2)c2c1CCC2 | -4.34
104 | CCC(=O)N1CCCC1c1nccnc1Nc1nc(C)cc(C)n1 (stereo not given) | -14
105 | CN(C)S(=O)(=O)c1ccc(=O)n(CC2CCCCO2)c1 (stereo not given) | -12.9
106 | CN(C)C(=O)C1CN(c2ccncn2)CCN(C2CCOCC2)C1 (stereo not given) | 12.4
107 | CC(C)c1noc(CN(C)C(c2ccc(F)cc2)c2cccnc2)n1 (stereo not given) | 10.2
108 | CCNC(=O)CCC(=O)Nc1nc(C)c(Cc2ccc(F)cc2)s1 | -1.26
109 | Cc1nonc1NC(=O)c1ccc(F)c(COCC2CC2)c1 | 11.9
110 | CNS(=O)(=O)c1cccc(C(C)NCc2cccc(OC)c2)c1 (stereo not given) | 10.9
111 | NCC1(c2cccc(C(F)(F)F)c2)CCC1 | -2.75
112 | COCCCN1Cc2cccc(NC(=O)c3ccccc3Cl)c2C1 | 12.9
113 | O=S1(=O)COCCN1Cc1ccc(F)cc1Cl | -9.29
114 | CSC(C)C(=O)NCc1ccc(-n2cncn2)nc1 (stereo not given) | -10.2
115 | CN(C(=O)c1ccc[nH]1)C1CC(=O)N(Cc2ccccc2)C1=O (stereo not given) | -4.14
